Here are results for 16 compounds from patent US7297704B2, “Cycloalkyfused indole, benzothiophene, benzofuran and idene derivatives” (Wyeth, priority 2005, dated 2007).

Counter-ions that a name gives are not always drawn. Like-named read-outs stand apart in the source and are kept apart here. Marks after values point to notes of the source that are not given here.

Assay [1] concerns the target T1, Human 5-HT1A Receptor (Homo sapiens, UniProt P08908).
T1 construct: expressed in transfected cells; host or cells: CHO cells
T1 sequence (P08908 1-422): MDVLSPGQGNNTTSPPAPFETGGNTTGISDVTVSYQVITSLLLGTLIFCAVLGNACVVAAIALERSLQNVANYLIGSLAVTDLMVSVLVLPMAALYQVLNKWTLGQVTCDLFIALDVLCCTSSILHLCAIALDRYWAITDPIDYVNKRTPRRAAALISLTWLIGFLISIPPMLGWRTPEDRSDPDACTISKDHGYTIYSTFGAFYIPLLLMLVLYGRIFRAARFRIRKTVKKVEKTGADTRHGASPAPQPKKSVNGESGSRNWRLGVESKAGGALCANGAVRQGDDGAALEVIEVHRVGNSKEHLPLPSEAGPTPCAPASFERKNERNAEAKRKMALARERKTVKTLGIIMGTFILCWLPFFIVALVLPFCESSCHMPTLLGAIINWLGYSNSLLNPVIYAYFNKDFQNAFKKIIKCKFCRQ
Kind of assay: 8-OH-DPAT binding, human 5-HT1A receptor cell line. To be noted: stably transfected CHO cells, 8-OH-DPAT ligand 1.5 nM; read-out: h5-HT1A Affinity, Ki. An outline of the steps:
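Membranes from CHO cells stably expressing human 5-HT1A, incubated 30 min at room temperature in 50 mM Tris pH 7.5 with 1.5 nM radioligand (8-OH-DPAT). Non-specific binding defined with […]; filtration on PEI-soaked GF/B filters. Single-point inhibition at […], then Ki for actives.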

Assay [2] concerns the target T2, cloned human 5-HT1A receptors (Homo sapiens, UniProt P08908).
T2 construct: expressed in transfected cells
T2 sequence (P08908 1-422): T1 sequence (P08908 1-422)
Put plainly: 35S-GTPγS binding assay. It counts as biochemical. To be noted: for EC50: superscript a, potency of stimulatory effect; for IC50: superscript b, reversal of 8-OH-DPAT effect; for Emax: superscript c, maximum stimulatory effect; for Imax (maximum inhibitory effect) / GTPγS, (Imax)^d: superscript d, maximum inhibitory effect. An excerpt:
The ^35S-GTPγS binding assay similar to that used by Lazareno and Birdsall (Br. J. Pharmacol., 1993, 109: 1120) was used to determine the test compound's ability to affect the binding of ^35S-GTPγS to membranes containing cloned human 5-HT1A receptors. Agonists produce an increase in binding whereas antagonists produce no increase but rather reverse the effects of the standard agonist 8-OH-DPAT. The test compound's maximum stimulatory effect is represented as the Emax, while its potency is defined by the EC50. The test compound's maximum inhibitory effect is represented as the Imax, while its potency is defined by the IC50. […] was used to determine maximum agonist or antagonist response.

Assay [3] concerns the target h-5-HT-T (Homo sapiens, UniProt P31645). Put plainly: h-5-HT-T IC50 (Table 1, no method described).
Assay [4] deals with T1, Human 5-HT1A Receptor. Kind of assay: cAMP RIA in human 5-HT1A receptor cell line. The class given is cell-based. To be noted: CHO cells; for EC50: superscript a, read-out: c-AMP, (EC50)^a; for EC50 / Emax / c-AMP, (Emax)^c: forskolin stimulated cAMP; for Emax / c-AMP, (Emax)^c: superscript c; for Emax: read-out: c-AMP, (Emax)^c; for IC50: superscript b, reversal of agonist activity, read-out: c-AMP, (IC50)^b. An outline of the steps: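 Stably transfected CHO cells preincubated in Krebs with 500 uM IBMX, then given forskolin (1 uM final) and test compound (0.1 and 1 uM initial screen) for 10 min at 37° C; cAMP measured by RIA as % inhibition. Antagonist mode: 6 concentrations preincubated 20 min before agonist plus forskolin; IC50 for reversal.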

Assay [5] deals with T3, serotonin transporter (Rattus norvegicus, UniProt P31652).
T3 construct: frontal cortical membranes prepared from male S.D. rats; from tissue; host or cells: rat frontal cortex membranes (male Sprague-Dawley)
T3 sequence (P31652 whole entry): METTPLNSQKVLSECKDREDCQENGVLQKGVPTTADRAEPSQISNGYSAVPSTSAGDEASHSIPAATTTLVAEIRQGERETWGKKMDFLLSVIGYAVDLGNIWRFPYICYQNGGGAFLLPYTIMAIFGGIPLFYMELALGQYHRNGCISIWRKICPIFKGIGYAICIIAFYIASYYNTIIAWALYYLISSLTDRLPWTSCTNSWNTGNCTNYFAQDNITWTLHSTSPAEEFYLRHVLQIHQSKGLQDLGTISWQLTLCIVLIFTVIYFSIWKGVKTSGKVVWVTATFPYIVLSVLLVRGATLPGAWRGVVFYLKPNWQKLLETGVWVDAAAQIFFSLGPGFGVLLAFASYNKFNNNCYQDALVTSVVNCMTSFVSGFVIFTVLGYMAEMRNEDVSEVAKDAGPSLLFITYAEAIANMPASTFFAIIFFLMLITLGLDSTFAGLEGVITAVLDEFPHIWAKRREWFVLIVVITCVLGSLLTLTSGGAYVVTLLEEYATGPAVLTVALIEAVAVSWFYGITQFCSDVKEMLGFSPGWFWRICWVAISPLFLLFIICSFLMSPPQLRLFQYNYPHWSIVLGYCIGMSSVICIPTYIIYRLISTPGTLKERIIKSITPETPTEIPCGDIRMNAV
Kind of assay: 3H-paroxetine binding to the serotonin transporter, rat frontal cortical membranes. To be noted: values printed without parentheses, 3H-paroxetine 0.1 nM, read-out: rb-5-HH-T, Ki. An outline of the steps: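 Male Sprague-Dawley rat frontal cortical membranes incubated with 0.1 nM ³H-paroxetine for 60 min at 25 °C, test compound at one to eight concentrations; 10 μM fluoxetine defined specific binding. Filtration separated bound ligand, counted by scintillation. IC50 from nonlinear regression, converted to Ki by Cheng–Prusoff.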

Chain of h-5-HT-T (P31645 whole entry): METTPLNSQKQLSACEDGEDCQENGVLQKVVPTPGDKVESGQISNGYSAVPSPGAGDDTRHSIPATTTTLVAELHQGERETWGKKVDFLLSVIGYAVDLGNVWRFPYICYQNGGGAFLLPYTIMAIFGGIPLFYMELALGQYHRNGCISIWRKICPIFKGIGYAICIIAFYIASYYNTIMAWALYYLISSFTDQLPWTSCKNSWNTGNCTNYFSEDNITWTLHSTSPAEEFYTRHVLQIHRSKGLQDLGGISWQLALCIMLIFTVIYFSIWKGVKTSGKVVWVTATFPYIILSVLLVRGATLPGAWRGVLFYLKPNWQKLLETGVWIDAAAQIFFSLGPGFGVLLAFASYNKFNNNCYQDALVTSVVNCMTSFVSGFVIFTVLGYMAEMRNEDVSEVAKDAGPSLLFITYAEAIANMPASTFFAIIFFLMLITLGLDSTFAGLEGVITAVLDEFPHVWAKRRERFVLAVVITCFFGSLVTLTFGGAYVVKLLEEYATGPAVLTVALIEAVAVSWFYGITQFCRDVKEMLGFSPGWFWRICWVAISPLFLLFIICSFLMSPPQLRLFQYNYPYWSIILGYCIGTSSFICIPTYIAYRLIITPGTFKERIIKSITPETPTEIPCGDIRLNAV

On to `Cc1ccc2c3c(ccc2n1)OC[C@H](CNCCC1CCc2[nH]c4ccc(F)cc4c2C1)O3` (mixture of isomers) [Example 40, [2-(6-Fluoro-2,3,4,9-tetrahydro-1H-carbazol-3-yl)ethyl]{[(2S)-8-methyl-2,3-dihydro[1,4]dioxino[2,3-f]quinolin-2-yl]methyl}amine dihydrochloride], for which, in assay [1], the Ki (usually the equilibrium dissociation constant of an inhibitor or competing ligand from its target) stood at 680 nM. In assay [2], a half-maximal effect (EC50) was put at 7.1 nM; the IC50 (usually the point on the concentration scale where inhibition reaches its midpoint) amounted to 75 nM; the Emax (in general, the size of the effect at its maximum, as opposed to the concentration needed) is 46%; the Imax (maximum inhibitory effect) turned out to be 34%. The 50% inhibitory concentration (IC50) in assay [3] came to 1.24 ± 0.16 nM. In assay [4], the half-maximal effective concentration (EC50) (in general, the concentration giving half of the maximal effect) was 4.06 nM and the Emax stood at 100%. Also, the Ki in assay [5] is 48.4 nM.
Regarding `Cc1ccc2c3c(ccc2n1)OC[C@H](CNCC1CCc2sc4ccc(F)cc4c2C1)O3` (single isomer, unassigned) [31 diastereomer 1], the Ki in assay [1] amounted to 1.14 nM; in assay [5], 9.9 nM. Also, the results for the half-inhibitory concentration (IC50) in assay [2] and in assay [3] were 155 nM and 337 nM, respectively. Moreover, the “GTPγS, (Imax)^d” value in assay [2] was 95%^d. Besides, the Emax in assay [4] (CHO) worked out at 62%.
For the compound `Cc1ccc2c3c(ccc2n1)OC[C@H](CNCC1CCc2sc4ccc(F)cc4c2C1)O3` (single isomer, unassigned) [31 diastereomer 2], the Ki came out at 3.67 nM in assay [1] and 51.5 nM in assay [5]. Further, the IC50 in assay [2] turned out to be 290 nM; in assay [3] it was 547 nM. For the same compound, in assay [2], the “GTPγS, (Imax)^d” value worked out at 65%^d. Moreover, the “c-AMP, (Emax)^c” value in assay [4] is recorded as 62%^c.
Turning to `Cc1ccc2c3c(ccc2n1)OC[C@H](CNCC1CCc2sc4ccccc4c2C1)O3` (single isomer, unassigned) [32 diastereomer 2], the Ki in assay [1] amounted to 6.49 nM; in assay [5] it was 47.6 nM. Besides, the IC50 is 885 nM in assay [3] and 17.7 nM in assay [4].
In the case of `Cc1ccc2c3c(ccc2n1)OC[C@H](CNCC1CCc2sc4ccccc4c2C1)O3` (single isomer, unassigned) [32 diastereomers 1], the Ki in assay [1] is 8.07 nM; in assay [5], above 1000 nM. Further, the IC50 is 494 nM in assay [2] and 67.6 nM in assay [4]. The same compound gave an Imax (maximum inhibitory effect) in assay [2] of 100%.
In the case of `Cc1ccc2c3c(ccc2n1)OC[C@H](CNCC1CCc2c(sc4cc(F)ccc24)C1)O3` (single isomer, unassigned) [39 diastereomer 1], the Ki stood at 7.09 nM in assay [1] and 210 nM in assay [5]. In addition, the values for the IC50 in assay [2] and in assay [3] were 645 nM and 2060 nM, respectively. Also, in assay [2], the Imax (maximum inhibitory effect) is 100%. Besides, the Emax in assay [4] (CHO) came to 62%.
For `Cc1ccc2c3c(ccc2n1)OC[C@H](CNCC1CCc2c(sc4cc(F)ccc24)C1)O3` (single isomer, unassigned) [39 diastereomer 2], the Ki came to 2.16 nM in assay [1] and 184 nM in assay [5]. The figures for the IC50 in assay [2] and in assay [3] were 117 nM and 1440 nM, respectively. In assay [2], the “GTPγS, (Imax)^d” value came to 80%^d. Moreover, in assay [4], the “c-AMP, (Emax)^c” value came to 75%^c.
Regarding `Cc1ccc2c3c(ccc2n1)OC[C@H](CNCC[C@@H]1CCc2[nH]c4ccc(F)cc4c2C1)O3` (single isomer, unassigned) [Example 41, dihydrochloride], the Ki stood at 242 nM in assay [1] and 9.45 nM in assay [5]. Further, the EC50 in assay [2] stood at 24.8 nM; in assay [4], 4.13 nM. The Emax in assay [2] and in assay [4] was 94% each time. Besides, the IC50 in assay [3] stood at 0.58 ± 0.14 nM.
On to `Cc1ccc2c3c(ccc2n1)OC[C@H](CN[C@@H]1CCc2c([nH]c4ccc(F)cc24)C1)O3` (single isomer, unassigned) [Example 47, dihydrochloride], for which the Ki in assay [1] amounted to 186 nM; in assay [5], 12.8 nM. This compound had an IC50 in assay [3] of 102 ± 7.07 nM. Moreover, the EC50 in assay [4] came out at 300 nM. The Emax in assay [4] is 59%.
With `Cc1ccc2c3c(ccc2n1)OC[C@H](CN[C@H]1CCc2c([nH]c4ccc(F)cc24)C1)O3` (single isomer, unassigned) [Example 48, dihydrochloride], the values for the Ki in assay [1] and in assay [5] were 7.4 nM and 46.7 ± 2.07 nM, respectively. Moreover, the IC50 was found to be 31.9 ± 5.34 nM in assay [3] and 168 nM in assay [4].
Consider `CCCN(CC1CCc2[nH]c3ccc(F)cc3c2C1)C[C@H]1COc2ccc3nc(C)ccc3c2O1` (stereo partly drawn) [Example 51, N-[(6-Fluoro-2,3,4,9-tetrahydro-1H-carbazol-3-yl)methyl]-N-{[(2S)-8-methyl-2,3-dihydro[1,4]dioxino[2,3-f]quinolin-2-yl]methyl}propan-1-amine dihydrochloride dihydrate], for which, in assay [1], the Ki was 1290 nM. In assay [3], this compound gave a half-inhibitory concentration (IC50) of 22.3 ± 3.32 nM. In addition, in assay [4], the concentration giving a half-maximal response (EC50) came to 171 nM and the Emax was 59%. The Ki in assay [5] was found to be 88 nM.
The matching figures for `Cc1ccc2c3c(ccc2n1)OC[C@H](CN(CC1CCc2[nH]c4ccc(F)cc4c2C1)C1CCC1)O3` (stereo partly drawn) [Example 53, N-[(6-Fluoro-2,3,4,9-tetrahydro-1H-carbazol-3-yl)methyl]-N-{[(2S)-8-methyl-2,3-dihydro[1,4]dioxino[2,3-f]quinolin-2-yl]methyl}cyclobutanamine dihydrochloride dihydrate]: 5740 nM, 39.1 ± 3.85 nM, 126 nM, 68% and 498 nM.
Consider `CCC(C)N(C[C@@H]1CCc2[nH]c3ccc(F)cc3c2C1)C[C@H]1COc2ccc3nc(C)ccc3c2O1` (stereo partly drawn) [Example 58, N-{[(3R)-6-Fluoro-2,3,4,9-tetrahydro-1H-carbazol-3-yl]methyl}-N-{[(2S)-8-methyl-2,3-dihydro[1,4]dioxino[2,3-f]quinolin-2-yl]methyl}butan-2-amine monohydrochloride monohydrate], for which the values for the inhibitory constant (Ki) in assay [1] and in assay [5] were 1190 nM and 358 nM, respectively. This compound yielded a 50% inhibitory concentration (IC50) in assay [3] of 113 ± 22.5 nM. Moreover, the Emax in assay [4] was 22%.
For the compound `Cc1ccc2c3c(ccc2n1)OC[C@H](CN(C[C@@H]1CCc2[nH]c4ccc(F)cc4c2C1)C1CCCC1)O3` [Example 59, N-{[(3R)-6-Fluoro-2,3,4,9-tetrahydro-1H-carbazol-3-yl]methyl}-N-{[(2S)-8-methyl-2,3-dihydro[1,4]dioxino[2,3-f]quinolin-2-yl]methyl}cyclopentanamine monohydrochloride monohydrate], the Ki in assay [1] was determined as 3120 nM. Besides, the IC50 in assay [3] was found to be 115 ± 16.4 nM. Also, in assay [4], the EC50 is 431 nM and the Emax worked out at 81%. Besides, in assay [5], the Ki is 362 nM.
For the compound `Cc1ccc2c3c(ccc2n1)OC[C@H](CN(C)C[C@H]1CCc2c(c4cc(F)ccc4n2C)C1)O3` [Example 68, {[(3S)-6-Fluoro-9-methyl-2,3,4,9-tetrahydro-1H-carbazol-3-yl]methyl}methyl{[(2S)-8-methyl-2,3-dihydro[1,4]dioxino[2,3-f]quinolin-2-yl]methyl}amine monohydrochloride monohydrate], the results for the Ki in assay [1] and in assay [5] were 3720 nM and 293 nM, respectively. The compound further yielded an IC50 in assay [3] of 15.2 ± 0.74 nM. Further, the maximum response (Emax) in assay [4] was determined as 34.8%.
As to `Cc1ccc2c3c(ccc2n1)OC[C@H](CN(C)C[C@@H]1CCc2c(c4cc(F)ccc4n2C)C1)O3` [Example 69, {[(3R)-6-Fluoro-9-methyl-2,3,4,9-tetrahydro-1H-carbazol-3-yl]methyl}methyl{[(2S)-8-methyl-2,3-dihydro[1,4]dioxino[2,3-f]quinolin-2-yl]methyl}amine monohydrochloride monohydrate], the Ki in assay [1] came to 1590 nM. In assay [3], the concentration for half-maximal inhibition (IC50) is 35.8 ± 0.71 nM. In assay [4], the concentration for a half-maximal effect (EC50) turned out to be 548 nM and the Emax amounted to 63%. For the same compound, the Ki in assay [5] came to 220 nM.
